Patent US12384771B2, “Pleuromutilin derivative containing thiazole-pyridine benzyl quaternary ammonium salt side chain and preparation method and use thereof” (SHAANXI UNIVERSITY OF SCIENCE AND TECHNOLOGY, priority 2022, dated 2025)
Where a name gives a salt, the structure may show the parent alone.

Assays:
[1] = system: methicillin-resistant Staphylococcus aureus (MRSA) 18-171; assay: MIC, clinical drug-resistant bacteria; format: cell-based; conditions: MRSA 18-171, read-out: Minimum inhibitory concentration against clinical drug-resistant bacteria
Experimental: (§1) The minimum inhibitory concentration (MIC) of the pleuromutilin derivative containing thiazole-pyridine benzyl quaternary ammonium salt side chain was tested with moxifloxacin as a positive control (purchased from Shanghai Macklin Biochemical Technology Co., Ltd.) using a microbroth dilution method. At the same time, the pleuromutilin derivative containing thiazole-pyridine benzyl quaternary ammonium salt side chain of the invention was compared with the marketed pleuromutilin antibiotics, such as retapamulin (purchased from Nanjing Chemlin Chemical Industry Co., Ltd.), tiamulin (purchased from Shanghai Yuanye Bio-Technology Co., Ltd) and valnemulin (purchased from Shanghai Acmec Biochemical Co., Ltd), in order to screen out pleuromutilin derivatives with better activity.
(§2) Clinical resistant bacteria include multidrug-resistant Pseudomonas aeruginosa (MDR-PA) 18-993, 18-756 and 18-126, multidrug-resistant Klebsiella pneumoniae (MDR-KP) 18-893, 18-754 and 18-1482, methicillin-resistant Staphylococcus aureus (MRSA) 18-171, 18-209 and 18-575, vancomycin-resistant Enterococcus faecalis (VRE) 18-94, 18-80 and 18-507, and carbapenem-resistant Acinetobacter baumannii (CR-AB) 18-184, 18-560 and 18-882, all the clinical drug-resistant strains were from Huashan Hospital, Fudan University.

[2] = system: methicillin-resistant Staphylococcus aureus (MRSA) 18-575; assay: MIC, clinical drug-resistant bacteria; format: cell-based; conditions: MRSA 18-575, read-out: Minimum inhibitory concentration against clinical drug-resistant bacteria
Experimental: as §1, §2

[3] = system: multidrug-resistant Pseudomonas aeruginosa (MDR-PA) 18-126; assay: MIC, clinical drug-resistant bacteria; format: cell-based; conditions: MDR-PA 18-126, read-out: Minimum inhibitory concentration against clinical drug-resistant bacteria
Experimental: as §1, §2

[4] = system: vancomycin-resistant Enterococcus faecalis (VRE) 18-80; assay: MIC, clinical drug-resistant bacteria; format: cell-based; conditions: VRE 18-80; read-out: Minimum inhibitory concentration against clinical drug-resistant bacteria
Experimental: as §1, §2

[5] = system: multidrug-resistant Klebsiella pneumoniae (MDR-KP) 18-893; assay: MIC, clinical drug-resistant bacteria; format: cell-based; conditions: MDR-KP 18-893, read-out: Minimum inhibitory concentration against clinical drug-resistant bacteria
Experimental: as §1, §2

[6] = system: multidrug-resistant Pseudomonas aeruginosa (MDR-PA) 18-756; assay: MIC, clinical drug-resistant bacteria; format: cell-based; conditions: MDR-PA 18-756, read-out: Minimum inhibitory concentration against clinical drug-resistant bacteria
Experimental: as §1, §2

[7] = system: multidrug-resistant Klebsiella pneumoniae (MDR-KP) 18-1482; assay: MIC, clinical drug-resistant bacteria; format: cell-based; conditions: MDR-KP 18-1482, read-out: Minimum inhibitory concentration against clinical drug-resistant bacteria
Experimental: as §1, §2

[8] = system: vancomycin-resistant Enterococcus faecalis (VRE) 18-507; assay: MIC, clinical drug-resistant bacteria; format: cell-based; conditions: VRE 18-507; read-out: Minimum inhibitory concentration against clinical drug-resistant bacteria
Experimental: as §1, §2

[9] = system: carbapenem-resistant Acinetobacter baumannii (CR-AB) 18-882; assay: MIC, clinical drug-resistant bacteria; format: cell-based; conditions: CR-AB 18-882, read-out: Minimum inhibitory concentration against clinical drug-resistant bacteria
Experimental: as §1, §2

[10] = system: multidrug-resistant Pseudomonas aeruginosa (MDR-PA) 18-993; assay: MIC, clinical drug-resistant bacteria; format: cell-based; conditions: MDR-PA 18-993, read-out: Minimum inhibitory concentration against clinical drug-resistant bacteria
Experimental: as §1, §2

[11] = system: carbapenem-resistant Acinetobacter baumannii (CR-AB) 18-560; assay: MIC, clinical drug-resistant bacteria; format: cell-based; conditions: CR-AB 18-560, read-out: Minimum inhibitory concentration against clinical drug-resistant bacteria
Experimental: as §1, §2

[12] = system: vancomycin-resistant Enterococcus faecalis (VRE) 18-94; assay: MIC, clinical drug-resistant bacteria; format: cell-based; conditions: VRE 18-94; read-out: Minimum inhibitory concentration against clinical drug-resistant bacteria
Experimental: as §1, §2

[13] = system: multidrug-resistant Klebsiella pneumoniae (MDR-KP) 18-754; assay: MIC, clinical drug-resistant bacteria; format: cell-based; conditions: MDR-KP 18-754, read-out: Minimum inhibitory concentration against clinical drug-resistant bacteria
Experimental: as §1, §2

[14] = system: methicillin-resistant Staphylococcus aureus (MRSA) 18-209; assay: MIC, clinical drug-resistant bacteria; format: cell-based; conditions: MRSA 18-209, read-out: Minimum inhibitory concentration against clinical drug-resistant bacteria
Experimental: as §1, §2

[15] = system: carbapenem-resistant Acinetobacter baumannii (CR-AB) 18-184; assay: MIC, clinical drug-resistant bacteria; format: cell-based; conditions: CR-AB 18-184, read-out: Minimum inhibitory concentration against clinical drug-resistant bacteria
Experimental: as §1, §2

[16] = system: Staphylococcus epidermidis ATCC 12228; assay: MIC, microbroth dilution, standard strains; format: cell-based; conditions: ATCC12228, ATCC 12228, read-out: Minimum inhibitory concentration
Experimental: (§3) The minimum inhibitory concentration (MIC) of the pleuromutilin derivative containing thiazole-pyridine benzyl quaternary ammonium salt side chain was tested with moxifloxacin as a positive control (purchased from Shanghai Macklin Biochemical Technology Co., Ltd.) using a microbroth dilution method.
(§4) Standard strains include gram-positive bacteria: Staphylococcus epidermidis ATCC 12228, Staphylococcus aureus ATCC 29213, ATCC 25923 and methicillin-resistant Staphylococcus aureus ATCC 33591; gram-negative bacteria: Salmonella ATCC 14028, Acinetobacter baumannii ATCC 19606, Escherichia coli ATCC 25922 and CMCC 44103, all the strains were purchased from the American Type Culture Collection.

[17] = system: methicillin-resistant Staphylococcus aureus ATCC 33591; assay: MIC, microbroth dilution, standard strains; format: cell-based; conditions: ATCC33591, ATCC 33591, read-out: Minimum inhibitory concentration
Experimental: as §3, §4

[18] = system: Escherichia coli CMCC 44103; assay: MIC, microbroth dilution, standard strains; format: cell-based; conditions: CMCC44103, CMCC 44103, read-out: Minimum inhibitory concentration
Experimental: as §3, §4

[19] = system: Acinetobacter baumannii ATCC 19606; assay: MIC, microbroth dilution, standard strains; format: cell-based; conditions: ATCC19606, ATCC 19606, read-out: Minimum inhibitory concentration
Experimental: as §3, §4

[20] = system: Staphylococcus aureus ATCC 25923; assay: MIC, microbroth dilution, standard strains; format: cell-based; conditions: ATCC25923, ATCC 25923, read-out: Minimum inhibitory concentration
Experimental: as §3, §4

Salmonella ATCC 14028 = assay: MIC, microbroth dilution, standard strains; format: cell-based; conditions: ATCC14028, ATCC 14028, read-out: Minimum inhibitory concentration
Experimental: as §3, §4

[21] = system: Escherichia coli ATCC 25922; assay: MIC, microbroth dilution, standard strains; format: cell-based; conditions: ATCC25922, ATCC 25922, read-out: Minimum inhibitory concentration
Experimental: as §3, §4

[22] = system: Staphylococcus aureus ATCC 29213; assay: MIC, microbroth dilution, standard strains; format: cell-based; conditions: ATCC29213, ATCC 29213, read-out: Minimum inhibitory concentration
Experimental: as §3, §4

physchem = conditions: thermodynamic from solid
Experimental: Experimental method: representative compounds 2, 4 and 7 were selected for solubility determination, and retapamulin hydrochloride was used as a control. 1 mg of each sample was taken and quantitatively dissolved in a 10 mL volumetric flask, and the absorption peak area was measured by a high-performance liquid chromatography; then, the saturated solutions of the representative compounds 2, 4 and 7 and the control drug retapamulin were diluted 10-fold, and the absorption peak area was determined by HPLC; their respective solubility was obtained by calculating the absorption peak area.
The experimental instrument was Shimadzu LC-16, the chromatographic column was Hypersil C18 ODS (4.6×250 mm×5 μm), the flow rate was 1.0 mL/min, the detection wavelength was 300 nm, and the mobile phase was 0.05 mol/L of aqueous acetic acid solution:acetonitrile=30:70.

[23] = pH 1.5, simulated gastric fluid

| SMILES | MIC [1] [µg/mL] | MIC [2] [µg/mL] | MIC [3] [µg/mL] | MIC [4] [µg/mL] | MIC [5] [µg/mL] | MIC [6] [µg/mL] | MIC [7] [µg/mL] | MIC [8] [µg/mL] | MIC [9] [µg/mL] | MIC [10] [µg/mL] | MIC [11] [µg/mL] | MIC [12] [µg/mL] | MIC [16] [µg/mL] | MIC [17] [µg/mL] | MIC [18] [µg/mL] | MIC [19] [µg/mL] | MIC [20] [µg/mL] | MIC (Salmonella ATCC 14028) [µg/mL] | MIC [21] [µg/mL] | MIC [22] [µg/mL] | also measured |
| --- | --- | --- | --- | --- | --- | --- | --- | --- | --- | --- | --- | --- | --- | --- | --- | --- | --- | --- | --- | --- | --- |
| C=C[C@]1(C)C[C@@H](OC(=O)CSc2nc(-c3cc[n+](Cc4ccc(C)cc4)cc3)cs2)[C@]2(C)[C@H](C)CC[C@]3(CCC(=O)[C@H]32)[C@@H](C)[C@@H]1O [Compound 2, 1-(4-Methylbenzyl)-4-(2-((2-((8-hydroxy-4,7,9,12-tetramethyl-3-oxo-7-vinyldecahydro-4,9a-propancyclopent[8]cyclen-5-yl)oxy)-2-oxoethyl)thio)thiazol-4-yl)pyridyl bromide salt] | 4 | > 128 | 64 | 2 | 16 | 128 | 64 | > 128 | 8 | 128 | > 128 | > 128 | 1 | 1 | 0.5 | 1 | 0.0625 | 2 | 0.0625 | 0.0625 | MIC [13]: 32 µg/mL; MIC [14]: 128 µg/mL; MIC [15]: 16 µg/mL; solubility (physchem; organic solvent or mixture): 13200 µg/mL; solubility (physchem; [23]): 2760 µg/mL; solubility (physchem; pH 7, water): 2020 µg/mL |
| C=C[C@]1(C)C[C@@H](OC(=O)CSc2nc(-c3cc[n+](Cc4ccc(OC)cc4)cc3)cs2)[C@]2(C)[C@H](C)CC[C@]3(CCC(=O)[C@H]32)[C@@H](C)[C@@H]1O [Compound 4, 1-(4-(methoxy)benzyl)-4-(2-(8-hydroxy-4,7,9,12-tetramethyl-3-oxo-7-vinyldecahydro-4,9a-propancyclopent[8]cyclen-5-yl)oxy)-2-oxoethyl)thiazol-4-yl)pyridyl bromide salt] | 16 | > 128 | 64 | 2 | 64 | > 128 | 64 | > 128 | 8 | 64 | > 128 | > 128 | 1 | 1 | 1 | 2 | 0.5 | 0.5 | 0.5 | 0.5 | MIC [13]: 32 µg/mL; MIC [14]: 128 µg/mL; MIC [15]: 64 µg/mL; solubility (physchem; organic solvent or mixture): 11900 µg/mL; solubility (physchem; [23]): 3120 µg/mL; solubility (physchem; pH 7, water): 2320 µg/mL |
| C=C[C@]1(C)C[C@@H](OC(=O)CSc2nc(-c3cc[n+](Cc4cc(F)cc(F)c4)cc3)cs2)[C@]2(C)[C@H](C)CC[C@]3(CCC(=O)[C@H]32)[C@@H](C)[C@@H]1O [Compound 15, 1-(3,5-difluorobenzyl)-4-(2-(8-hydroxy-4,7,9,12-tetramethyl-3-oxo-7-vinyldecahydro-4,9a-propancyclopent[8]cyclen-5-yl)oxy)-2-oxoethyl)thiazol-4-yl)pyridyl bromide salt] |  |  |  |  |  |  |  |  |  |  |  |  | 32 | 64 | 32 | 8 | 128 | 16 | 16 | 64 |  |
